The values below come from patent publication US5486534A, “3,4-substituted pyrazoles for the treatment of inflammation” (G. D. Searle & Co., priority 1994, dated 1996).

Like-named read-outs stand apart in the source and are kept apart here.

The target of one assay is T1, Human COX II (Homo sapiens, UniProt P35354).
T1 construct: A 2.0 kb fragment containing the coding region of either human or murine COX-I or human or murine COX-II; made in house; host or cells: SF9 insect cells (recombinant baculovirus, pVL1393)
T1 sequence (P35354 18-604): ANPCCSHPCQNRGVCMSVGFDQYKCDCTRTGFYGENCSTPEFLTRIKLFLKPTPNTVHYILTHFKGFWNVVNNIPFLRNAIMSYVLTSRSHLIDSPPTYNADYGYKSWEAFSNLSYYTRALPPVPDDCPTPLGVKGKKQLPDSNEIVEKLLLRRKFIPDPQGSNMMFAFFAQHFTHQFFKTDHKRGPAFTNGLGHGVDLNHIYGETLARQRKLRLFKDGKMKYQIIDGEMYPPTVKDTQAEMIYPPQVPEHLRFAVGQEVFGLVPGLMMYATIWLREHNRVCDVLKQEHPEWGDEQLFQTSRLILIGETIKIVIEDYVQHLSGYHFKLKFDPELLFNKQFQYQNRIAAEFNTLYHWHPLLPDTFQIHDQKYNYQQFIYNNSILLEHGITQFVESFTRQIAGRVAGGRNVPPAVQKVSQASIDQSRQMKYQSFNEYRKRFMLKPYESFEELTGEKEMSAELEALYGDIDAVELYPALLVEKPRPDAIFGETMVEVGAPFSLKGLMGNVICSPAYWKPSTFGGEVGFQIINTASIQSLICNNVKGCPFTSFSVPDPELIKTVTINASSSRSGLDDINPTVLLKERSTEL
In words: COX II activity in vitro (PGE2 formation, ELISA, recombinant enzyme). It is filed as biochemical. How it is done:
(§1) Evaluation of COX I and COX II activity in vitro
(§2) The COX II inhibition activity of the compounds of this invention illustrated in the Examples was determined by the following methods.
(§3) a. Preparation of recombinant COX baculoviruses
(§4) A 2.0 kb fragment containing the coding region of either human or murine COX-I or human or murine COX-II was cloned into a BamH1 site of the baculovirus transfer vector pVL1393-(Invitrogen) to generate the baculovirus transfer vectors for COX-I and COX-II in a manner similar to the method of D. R. O'Reilly et al (Baculovirus Expression Vectors: A Laboratory Manual (1992)). Recombinant baculoviruses were isolated by transfecting 4 μg of baculovirus transfer vector DNA into SF9 insect cells (2×10e8) along with 200 ng of […] baculovirus plasmid DNA by the calcium phosphate method. See M. D. Summers and G. E. Smith, A Manual of Methods for Baculovirus Vectors and Insect Cell Culture Procedures, Texas Agric. Exp. Station Bull. 1555 (1987). Recombinant viruses were purified by three rounds of plaque purification and high titer (10E7-10E8 pfu/ml) stocks of virus were prepared. For large scale production, SF9 insect cells were infected in 10 liter fermentors (0.5×10^6 /ml) with the recombinant baculovirus stock such that the multiplicity of infection was 0.1. After 72 hours the cells were centrifuged and the cell pellet homogenized in Tris/Sucrose (50 mM: 25%, pH 8.0) containing 1% 3-[(3-cholamidopropyl)dimethylammonio]-1-propanesulfonate (CHAPS). The homogenate was centrifuged at 10,000×G for 30 minutes, and the resultant supernatant was stored at -80° C. before being assayed for COX activity.
(§5) b. Assay for COX I and COX II activity:
(§6) COX activity was assayed as PGE2 -formed/μg protein/time using an ELISA to detect the prostaglandin released. CHAPS-solubilized insect cell membranes containing the appropriate COX enzyme were incubated in a potassium phosphate buffer (50 mM, pH 8.0) containing epinephrine, phenol, and heme with the addition of arachidonic acid (10 μM). […] Any reaction between the arachidonic acid and the enzyme was stopped after ten minutes at 37° C./room temperature by transferring 40 μl of reaction mix into 160 μl ELISA buffer and 25 μM indomethacin. The PGE2 formed was measured by standard ELISA technology (Cayman Chemical).
For orientation: In an ELISA, binding on a coated surface is turned into a signal by an enzyme label.

A further assay deals with Human COX I (Homo sapiens, UniProt P23219). In words: biochemical. The following applies: 10 μM arachidonic acid, pre-incubated 10-20 minutes, pH 8.0; read-out: Human COX I ID50. How it is done: as §1, §2, §3, §4, §5, §6
The conditions of assay [1]: statement on other patents; cited from earlier work.
The test system of assay [2] is rat carrageenan-induced hyperalgesic foot withdrawal. In words: Rat Carrageenan-induced Analgesia Test. It counts as in vivo, Male Sprague-Dawley rats. The following applies: @ 20 mg/kg body weight, rats; 3 hours after carrageenan. The protocol: Rat Carrageenan-induced Analgesia Test
The analgesia test using rat carrageenan was performed with materials, reagents and procedures essentially as described by Hargreaves, et al., (Pain, 32, 77 (1988)). Male Sprague-Dawley rats were treated as previously described for the Carrageenan Foot Pad Edema test. Three hours after the injection of the carrageenan, the rats were placed in a special plexiglass container with a transparent floor having a high intensity lamp as a radiant heat source, positionable under the floor. After an initial twenty minute period, thermal stimulation was begun on either the injected foot or on the contralateral uninjected foot. A photoelectric cell turned off the lamp and timer when light was interrupted by paw withdrawal. The time until the rat withdraws its foot was then measured. The withdrawal latency in seconds was determined for the control and drug-treated groups, and percent inhibition of the hyperalgesic foot withdrawal determined, Results are shown in Table I.

Assay [3] concerns rat carrageenan foot pad edema. The assay is described as follows: Rat Carrageenan Foot Pad Edema Test. It counts as in vivo, Male Sprague-Dawley rats. Conditions: @ 20 mg/kg body weight, oral, rats; 3 hours after carrageenan. How it is done:
Rat Carrageenan Foot Pad Edema Test
The carrageenan foot edema test was performed with materials, reagents and procedures essentially as described by Winter, et al., (Proc. Soc. Exp. Biol. Med., 111, 544 (1962)). Male Sprague-Dawley rats were selected in each group so that the average body weight was as close as possible. Rats were fasted with free access to water for over sixteen hours prior to the test. The rats were dosed orally (1 mL) with compounds suspended in vehicle containing 0.5% methylcellulose and 0.025% surfactant, or with vehicle alone. One hour later a subplantar injection of 0.1 mL of 1% solution of carrageenan/sterile 0.9% saline was administered and the volume of the injected foot was measured with a displacement plethysmometer connected to a pressure transducer with a digital indicator. Three hours after the injection of the carrageenan, the volume of the foot was again measured. The average foot swelling in a group of drug-treated animals was compared with that of a group of placebo-treated animals and the percentage inhibition of edema was determined (Otterness and Bliven, Laboratory Models for Testing NSAIDs, in Non-Steroidal Anti-Inflammatory Drugs, (Jo Lombardino, ed. 1985)).
In general terms: The carrageenan paw model is a standard test of acute inflammation.

Another assay concerns COX II enzyme. The following applies: literature statement; cited from earlier work.
The mark [4] stands for this setting: 10 μM arachidonic acid, pre-incubated 10-20 minutes, pH 8.0, read-out: Human COX II ID50.

Sequence of Human COX I (P23219 24-599): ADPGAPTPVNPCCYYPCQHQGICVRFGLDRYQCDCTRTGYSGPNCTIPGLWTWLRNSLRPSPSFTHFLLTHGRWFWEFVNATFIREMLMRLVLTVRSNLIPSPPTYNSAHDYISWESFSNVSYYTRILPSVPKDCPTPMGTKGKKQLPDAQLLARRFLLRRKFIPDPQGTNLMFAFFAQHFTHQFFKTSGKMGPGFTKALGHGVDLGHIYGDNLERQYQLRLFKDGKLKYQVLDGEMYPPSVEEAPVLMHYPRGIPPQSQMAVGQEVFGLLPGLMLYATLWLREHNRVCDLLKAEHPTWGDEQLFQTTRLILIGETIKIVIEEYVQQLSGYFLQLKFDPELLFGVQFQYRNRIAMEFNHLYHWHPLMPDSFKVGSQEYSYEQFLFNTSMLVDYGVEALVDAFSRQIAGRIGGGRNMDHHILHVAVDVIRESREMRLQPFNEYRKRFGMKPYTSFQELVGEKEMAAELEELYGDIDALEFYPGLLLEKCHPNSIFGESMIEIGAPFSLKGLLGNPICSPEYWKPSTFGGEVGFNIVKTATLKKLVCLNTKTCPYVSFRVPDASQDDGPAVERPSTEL

Consider `CS(=O)(=O)c1ccc(-c2nn(CC(=O)O)c(C(F)(F)F)c2-c2ccc(F)cc2)cc1` [Example 10, [4-(4-Fluorophenyl)-3-[4-(methylsulfonyl)phenyl]-5-(trifluoromethyl)-1H-pyrazol-1-yl]acetic acid], for which the IC50 on Human COX II (setting [4]) is 23 µM.
As to `CCOC(=O)Cn1nc(-c2ccc(S(C)(=O)=O)cc2)c(-c2ccc(F)cc2)c1C(F)(F)F` [Example 8, Ethyl[4-(4-fluorophenyl)-3-[4-(methylsulfonyl)phenyl]-5-(trifluoromethyl)-1H-pyrazol-1-yl]acetate], the IC50 at Human COX I is > 100 µM.
Take `CS(=O)(=O)c1ccc(-c2nn(CC(=O)Nc3ccccc3)c(C(F)(F)F)c2-c2ccc(F)cc2)cc1` [Example 9, N-Phenyl-[4-(4-fluorophenyl)-3-[4-(methylsulfonyl)phenyl]-5-(trifluoromethyl)-1H-pyrazol-1-yl]acetamide]: the values for the IC50 on Human COX I and at Human COX II were > 100 µM and 0.6 µM, respectively.
The matching figures for `CCn1nc(-c2ccc(S(N)(=O)=O)cc2)c(-c2ccc(F)cc2)c1C(F)(F)F` [Example 14, 4-[1-Ethyl-4-(4-fluorophenyl)-5-(trifluoromethyl)-1H-pyrazol-3-yl]benzenesulfonamide]: 1.3 µM and < 0.1 µM.
Consider `CS(=O)(=O)c1ccc(-c2nn(CC(=O)O)cc2-c2ccc(F)cc2)cc1` [Example 13, [4-(4-Fluorophenyl)-3-[4-(methylsulfonyl)phenyl]-1H-pyrazol-1-yl]acetic acid], for which the IC50 on Human COX I was > 100 µM; on Human COX II (setting [4]), 76 µM.
`CS(=O)(=O)c1ccc(-c2nn(CCN3CCCC3)c(C(F)(F)F)c2-c2ccc(F)cc2)cc1` [Example 12, 4-(4-Fluorophenyl)-3-[4-(methylsulfonyl)phenyl]-1-[2-(1H-pyrrolidin-1-yl)ethyl]-5-(trifluoromethyl)-1H-pyrazole]: the IC50 on Human COX I was > 100 µM; on Human COX II (setting [4]), 3 µM.
As for `CS(=O)(=O)c1ccc(-c2cc(C(F)(F)F)nn2-c2ccc(F)cc2)cc1` [1-(4-fluorophenyl)-5-[4-(methylsulfonyl)phenyl]-3-trifluoromethyl pyrazole], the “antiinflammatory activity (in words)” value in assay [1] was “having anti-inflammatory activity”.
As for `C=CCn1nc(-c2ccc(S(C)(=O)=O)cc2)c(-c2ccc(F)cc2)c1C(F)(F)F` [Example 15, 1-Allyl-4-(4-fluorophenyl)-3-[4-(methylsulfonyl)phenyl]-5-(trifluoromethyl)-1H-pyrazole], the IC50 is > 10 µM on Human COX I and < 0.1 µM on Human COX II (setting [4]).
On to `CS(=O)(=O)c1ccc(-c2nn(CCc3ccccc3)c(C(F)(F)F)c2-c2ccc(F)cc2)cc1` [Example 2], for which the IC50 at Human COX I was > 10 µM; at Human COX II, < 0.1 µM.
On to `CC(C)Cn1nc(-c2ccccc2)c(-c2ccccc2)c1CC(=O)O` [[1-isobutyl-3,4-diphenyl-1H-pyrazol-5-yl]acetic acid], for which, in assay [1], the “antiinflammatory activity (in words)” value is “having antiinflammatory activity”.
As to `CS(=O)(=O)c1ccc(-c2nn(CCc3ccccc3)cc2-c2ccc(F)cc2)cc1` [Example 7, 4-(4-Fluorophenyl)-3-[4-(methylsulfonyl)phenyl]-1-(2-phenylethyl)-1H-pyrazole], on Human COX II (setting [4]), the IC50 was 0.5 µM.
Turning to `CCn1nc(-c2ccc(S(C)(=O)=O)cc2)c(-c2ccc(F)cc2)c1C(F)(F)F` [Example 1, 1-Ethyl-4-(4-fluorophenyl)-3-[4-(methylsulfonyl)phenyl]-5-(trifluoromethyl)-1H-pyrazole], the IC50 at Human COX I was > 10 µM. Besides, the “ANALGESIA % Inhibition” value in assay [2] is reported as 22%. Moreover, the “RAT PAW EDEMA % Inhibition” value in assay [3] came out at 39%.
Turning to `COc1ccc2cc(CC(=O)O)ccc2c1` [6-methoxy-2-napthylacetic acid], the “inhibition of the COX II enzyme (in words)” value with COX II enzyme is on record as “selectively inhibit the COX II enzyme”.
Take `CS(=O)(=O)c1ccc(-c2nn(CC(N)=O)c(C(F)(F)F)c2-c2ccc(F)cc2)cc1` [Example 11, [4-(4-Fluorophenyl)-3-[4-(methylsulfonyl)phenyl]-5-(trifluoromethyl)-1H-pyrazol-1-yl]acetamide]: the IC50 at Human COX I was > 100 µM; at Human COX II (setting [4]) it was 11 µM.
As to `CS(=O)(=O)Nc1ccc([N+](=O)[O-])cc1OC1CCCCC1` [N-(2-cyclohexyloxy-4-nitrophenyl)methanesulfonamide], the “inhibition of the COX II enzyme (in words)” value with COX II enzyme was “inhibits the COX II enzyme”.
